Laboratory results from article PMC12554172, “Systematic analysis of the RGS2 degron reveals characteristics of substrate recognition by the F-box protein FBXO44” (The Journal of Biological Chemistry, 2025).

Assays:
[1] = treatment of certain blood cancers; background statement; cited from earlier work
Text: RGS2 is rapidly and constitutively degraded by the ubiquitin–proteasomal system ([12], [13]). Dysfunction of this crucial system can lead to accumulation of misfolded or aged proteins, cell cycle arrest, and uncontrolled cell proliferation ([14], [15], [16], [17]), driving various pathologies, including multiple cancers and cardiovascular disease ([18], [19]). Proteasome inhibitors, such as bortezomib (Velcade) and carfilzomib, are used in the treatment of certain blood cancers ([20], [21]). However, the severe side effects associated with these drugs, including neuropathies, fatigue, and anem ...

[2] = molecular target: T1, FBXO44^FBA (Homo sapiens, UniProt Q9H4M3); assay: Peptide microarray (PEPperPRINT), FLAG-FBXO44^FBA binding; conditions: 2 μg/ml FBXO44^FBA overnight at 4 °C; for Mean % difference from parent peptide (FLAG immunoreactivity): Table S1, RGS2^5–16 single-residue substitution, PBS 0.005% Tween pH 7.4, anti-FLAG DyLight800 fluorescence, three independent experiments with three technical replicates each; for FBXO44^FBA binding in peptide microarray (in words): versus parent RGS2^5–16 peptide, fluorescence
T1 construct: we expressed and purified only this domain for all in vitro studies; 6xHis (N, cleaved yes); MBP (N, cleaved yes); made in house; host or cells: Escherichia coli Rosetta BL21 (λDE3)
T1 sequence (Q9H4M3 71-252 limits assumed): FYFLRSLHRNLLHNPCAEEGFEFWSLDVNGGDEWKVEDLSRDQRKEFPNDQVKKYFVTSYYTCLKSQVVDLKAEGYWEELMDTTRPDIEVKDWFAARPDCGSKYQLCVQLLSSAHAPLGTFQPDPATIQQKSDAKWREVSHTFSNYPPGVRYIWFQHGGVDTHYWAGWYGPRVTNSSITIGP
Text: To do so, we utilized a custom peptide microarray (PEPperPRINT GmbH). The design of this array was twofold: (1) substitution at each position with every other natural eukaryotic amino acid; (2) truncation of the peptide from the C terminus. We assessed the binding of FLAG-FBXO44^FBA to the array utilizing fluorescence immunoreactivity corresponding to the amount of FLAG-FBXO44^FBA bound. […] Substitutions at Asp^12 were not only tolerated but also seemed to improve binding in every case (Fig. 3B). This, combined with the fact that substituting any residue in His^11–Met^16 with Arg, and in most cases with Lys, improved FBXO44^FBA binding, indicating the presence of negative charges at the binding interface.
Figure 2 Systematic mutation of the RGS2 degron alters FBXO44^FBA binding. A custom microarray (PEPperPRINT) was designed where each position of the RGS2^5–16 peptide was substituted for each natural amino acid. We also included truncated peptides on the array. This was incubated with purified FBXO44^FBA and probed with α-FLAG. A, a representative scan of a peptide microarray (top) and a truncated peptide (bottom). B, heatmap of mean fluorescence of quantified microarray scans. The scale represents the mean fluorescence in percentage points across all replicates, normalized to the signal obtained with the original residue at each position. C, heatmap of standard deviation of quantified microarray scans. The scale represents the standard deviation in percentage points across all replicates. […] Residues are color-coded based on properties: blue, positive charge; red, negative charge; orange, uncharged polar; green, hydrophobic; yellow, Cys (C); bright green, Pro (P); and black, Gly (G). […] Results of three independent experiments with three technical replicates each. For a statistical significance summary, see Table S1. FBXO44, F-box only protein 44; RGS2, regulator of G protein signaling 2.
Figure 3 Effects of RGS2^5–16 peptide residue changes on FBXO44^FBA binding. Data are presented as % FLAG immunoreactivity, as compared with the parent peptide residue. […] The original residue is marked in each graph with a vertical dotted line. Boxes extend from the 25th to 75th percentile with a line marking the median. Whiskers extend to the minimum and maximum. Results of three independent experiments with three technical replicates each. Data were analyzed by two-way ANOVA, with Tukey's post hoc test for pairwise comparison (simple effect within columns). Statistical significance is summarized in Table S1 and color-coded according to the legend. FBXO44, F-box only protein 44; RGS2, regulator of G protein signaling 2.
The microarray slide was seated into the incubation tray according to PEPperPRINT's instructions. The array well was then incubated in washing buffer (PBS) with 0.005% Tween (Sigma; P1379, pH 7.4) at room temperature for 15 min on an orbital shaker. Washing buffer was aspirated, and the array was then incubated with Rockland blocking buffer at room temperature for 30 min on an orbital shaker. Blocking buffer was then aspirated, and the array was incubated in staining buffer (washing buffer with 10% Rockland blocking buffer) at room temperature for 15 min on an orbital shaker. Staining buffer was aspirated, and purified FBXO44 FBA domain diluted to 2 μg/ml in staining buffer was added. The array was then placed on an orbital shaker overnight at 4 °C. The FBA domain solution was removed, and an array was washed three times with washing buffer. After the third array was incubated in staining buffer for 15 min at 4 °C on an orbital shaker. The array was then incubated with antibody dilution (anti-FLAG DyLight800 and anti-HA DyLight680, both diluted 1:2000 in staining buffer) for 45 min at 4° C on an orbital shaker. The array was then washed three times with washing buffer. […]

[3] = test system: HEK-293T cells; assay: RGS2 protein levels, baseline and with proteasome inhibitor MG-132; format: cell-based, human; conditions: Fig. S4, five or six independent experiments; for basal RGS2 protein expression versus RGS2^WT (Fig. S4): no MG-132; for change of RGS2 protein levels with MG-132 (Fig. S4): MG-132 10 μM, 4 h
Text: Representative Western blot and quantification of three independent experiments. […] Representative Western blot and quantification of three independent experiments. Representative Western blot (D), quantification of knockdown efficiency (E), and effects on RGS protein levels (F) when FBXO44 is knocked down using siRNA. […] Result of three independent experiments. ∗p < 0.05; ∗∗p < 0.01; ∗∗∗p < 0.001 using two-way ANOVA followed by Tukey's post hoc test for pairwise comparisons (C, E, and F). FBXO44, F-box only protein 44; HEK-293T, human embryonic kidney-293T cell line; RGS2, regulator of G protein signaling 2.
Cells were harvested on ice in lysis buffer containing protease inhibitors (50 mM Tris–HCl [pH 7.4], 5 mM NaCl, 0.5 mM EDTA, 1% Triton X-100, 10% cOmplete Protease Inhibitor Cocktail EDTA-free). Lysates were bath sonicated for 10 min at 4 °C, centrifuged at 6000g for 3 min, and the supernatant was used for SDS-PAGE and immunoblotting. Total protein concentration was determined using the Pierce BCA Protein Assay Kit. Samples were diluted to 1 μg/μl in protein sample loading buffer (Li-Cor Biosciences).
Equal amounts of protein in each lane were resolved on a 12% SDS-PAGE gel for 1 h at 160 V. Samples were transferred to an Immobilon-FL PVDF membrane (Millipore) and subjected to Western immunoblot analysis using Li-Cor blocking buffer for both blocking and antibody diluents. Membranes were blocked for 1 h, then incubated for 2 h in primary antibodies as described under “Antibodies,” and finally incubated for 1 h with IRDye secondary antibodies directed at the species of the primary antibody. Following each antibody incubation, membranes were washed four times in PBS with 0.1% Tween-20. Membranes were imaged using an Azure600 imaging system (Azure Biosystems).
Figure S4. Effect of RGS2 mutations on protein stability. Representative western blot and quantification of five or six independent experiments (varies by mutation). The proteasome inhibitor MG-132 (10 μM, 4 h) […]
P15R were predicted to destabilize RGS2, due to increased binding to FBXO44 in the peptide microarray. […]
significant. *P<0.05; ***P<0.001 using two-way ANOVA followed by Tukey’s post hoc test for pairwise

[4] = molecular target: T1, FBXO44^FBA; assay: Dot blot of FLAG-FBXO44^FBA binding to immobilized peptide; conditions: peptide spotted on PVDF at increasing amounts; 2 μg/ml FLAG-FBXO44^FBA overnight at 4 °C; anti-FLAG
Text: However, evidence of a direct interaction between RGS2 and FBXO44 has, until now, not yet been established. Thus, we first aimed to verify that purified FBXO44 would bind the degron sequence in vitro. […] This also circumvented the issue that full-length FBXO44 (as well as all other F-box proteins) is very difficult to express in the absence of an adaptor protein, such as Skp1 ([30]). To test the ability of the FBA domain to bind the RGS2 degron specifically, a peptide corresponding to residues Met^5–Met^16 (MFLAVQHDRCPM; herein referred to as RGS2^5–16; Fig. 1A) was dotted onto a polyvinylidene difluoride (PVDF) membrane at increasing amounts (Fig. 1B). […] The membrane was then incubated with FLAG-tagged FBXO44 FBA domain (FBXO44^FBA) and subjected to immunoblotting using a FLAG antibody. […] To get an estimate of the binding affinity between FBXO44^FBA, we next performed surface plasmon resonance (SPR) with the RGS2^5–16 peptide anchored on the chip and FBXO44^FBA as the analyte.
Figure 1 A peptide representing the degron in RGS2 binds FBXO44^FBAin vitro.A, sequence and schematic of the RGS2^5–16 peptide. B, a representative dot blot showing binding of FBXO44^FBA to immobilized RGS2^5–16 peptide. […] The RU at equilibrium was subtracted from the nonspecific binding detected in Fc1 and measured for each concentration. […]

Row | Molecule | severe side effects [1] | Mean % difference from parent peptide (FLAG immunoreactivity) [2] | FBXO44^FBA binding in peptide microarray (in words) [2] | basal RGS2 protein expression versus RGS2^WT (Fig. S4) [3] | FLAG immunoreactivity (FBXO44^FBA binding) [4] | change of RGS2 protein levels with MG-132 (Fig. S4) [3]
1 | CC(C)C[C@H](NC(=O)[C@H](Cc1ccccc1)NC(=O)c1cnccn1)B(O)O [bortezomib] | neuropathies, fatigue, and anemia | – | – | – | – | –
2 | CC(C)C[C@H](NC(=O)[C@H](CCc1ccccc1)NC(=O)CN1CCOCC1)C(=O)N[C@@H](Cc1ccccc1)C(=O)N[C@@H](CC(C)C)C(=O)[C@@]1(C)CO1 [carfilzomib] | neuropathies, fatigue, and anemia | – | – | – | – | –
3 | D12R: array RGS2^5–16 peptide, D12 substituted by R (MFLAVQHRCRPM) | – | 184.9% | enhanced FBXO44^FBA binding | trend towards decreased expression | – | –
4 | MCKGLAALPAT [RGS4^1–11, peptide corresponding to the first 11 residues in RGS4, negative control] | – | – | – | – | no signal detected | –
5 | P15G: array RGS2^5–16 peptide, P15 substituted by G | – | -30.63% | decreased binding | none of these mutations resulted in significant changes in basal expression | – | none of these mutations resulted in significant changes in basal expression or response to MG-132
6 | P15R: array RGS2^5–16 peptide, P15 substituted by R (MFLAVQHDCRRM) | – | 158% | enhanced FBXO44^FBA binding | none of these mutations resulted in significant changes in basal expression | – | none of these mutations resulted in significant changes in basal expression or response to MG-132
